In US9266834B2, “1, 4-disubstituted 3-cyano-pyridone derivatives and their use as positive allosteric modulators of MGLUR2-receptors” (JANSSEN PHARMACEUTICALS, INC., priority 2006, dated 2016):

How the values were obtained:
human mGluR2 receptor = biological target: T1, human mGluR2 receptor (Homo sapiens, UniProt Q14416); experiment: [35S]GTPγS binding assay (GTPγS-PAM): positive allosteric modulation in presence of glutamate at EC25, membranes from transfected CHO cells; type: biochemical; conditions: in presence of mGluR2 agonist glutamate at predetermined EC25 concentration, averages of duplicate values of 11-concentration response curves, read-out: GTPgS - hR2 PAM pEC50 (converted)
T1 construct: expressed in transfected cells; host or cells: CHO cells (membrane preparation)
Method in brief: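 Membranes came from butyrate-stimulated CHO cells expressing human mGluR2, used at 15 μg/well in HEPES pH 7.4 with 100 mM NaCl, 3 mM MgCl2, 50 μM GDP and saponin. Compound (0.3 nM-50 μM, 11 concentrations) plus glutamate at EC25 was preincubated 30 min at 30° C., then 0.1 nM [35S]GTPγS was added for 30 min. Filter-bound radioactivity was counted, nonspecific binding was taken with 10 μM GTP, and curves were fitted by four-parameter logistic.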

T1 sequence (Q14416 19-872): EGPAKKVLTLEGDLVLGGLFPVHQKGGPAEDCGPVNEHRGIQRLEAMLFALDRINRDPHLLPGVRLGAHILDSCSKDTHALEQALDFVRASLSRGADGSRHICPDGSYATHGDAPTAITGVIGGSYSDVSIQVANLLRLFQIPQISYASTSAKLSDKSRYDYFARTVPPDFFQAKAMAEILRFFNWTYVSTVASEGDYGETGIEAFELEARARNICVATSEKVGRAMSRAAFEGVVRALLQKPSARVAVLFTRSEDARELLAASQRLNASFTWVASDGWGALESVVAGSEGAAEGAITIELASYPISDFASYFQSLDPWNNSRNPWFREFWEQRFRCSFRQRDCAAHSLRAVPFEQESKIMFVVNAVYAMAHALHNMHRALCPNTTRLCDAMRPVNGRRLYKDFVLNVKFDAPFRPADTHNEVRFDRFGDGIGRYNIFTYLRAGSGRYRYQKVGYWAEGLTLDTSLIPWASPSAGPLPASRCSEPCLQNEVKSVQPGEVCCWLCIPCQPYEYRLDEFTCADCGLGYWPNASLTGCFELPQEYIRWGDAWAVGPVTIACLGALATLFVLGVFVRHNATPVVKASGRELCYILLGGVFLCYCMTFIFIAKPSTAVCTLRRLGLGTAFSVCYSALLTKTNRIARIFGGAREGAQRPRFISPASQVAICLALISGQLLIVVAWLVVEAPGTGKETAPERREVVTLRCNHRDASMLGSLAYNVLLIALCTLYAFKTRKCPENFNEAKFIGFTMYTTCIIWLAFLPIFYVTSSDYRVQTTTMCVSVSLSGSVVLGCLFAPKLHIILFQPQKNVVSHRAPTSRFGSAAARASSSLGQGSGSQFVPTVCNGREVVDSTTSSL

Compound	melting point	EC50 (human mGluR2 receptor)
CC(C)CCn1ccc(-c2ccc(NCc3cccc(Cl)c3)cc2)c(C#N)c1=O [1-202]	146 °C	31.6 nM
CC(C)CCn1ccc(-c2ccc(C(C#N)c3ccn(CCC(C)C)c(=O)c3C#N)cc2)c(C#N)c1=O (stereo not drawn) [1-255]	233 °C	794 nM
COCc1cccc(-c2ccn(CCC(C)C)c(=O)c2C#N)c1 [1-107]	67 °C	3160 nM
CC(C)CCn1ccc(-c2ccc(OCC#N)cc2)c(C#N)c1=O [1-131]	132 °C	2510 nM
CC(C)CCn1ccc(-c2ccc(N3CCC(O)CC3)cc2)c(C#N)c1=O [1-220]	213 °C	1260 nM
CC(C)CCn1ccc(-c2ccc(O)cc2)c(C#N)c1=O [1-097]	210 °C	1580 nM
N#Cc1c(-c2ccccc2)ccn(Cc2ccc(-c3ccccc3)cc2)c1=O [1-042]	185 °C	158 nM
COc1cc(-c2ccn(CCC(C)C)c(=O)c2C#N)ccc1N1CCOCC1 [1-225]	151 °C	2000 nM
COc1ccc(-c2ccn(CCOc3ccccc3)c(=O)c2C#N)cc1 [1-048]	188 °C	1000 nM
CC(C)CCn1ccc(-c2ccc(N3CCOCC3)cc2)c(C#N)c1=O [1-223, 3-cyano-4-(4-(N-morpholyl)phenyl)-1-(3-methylbutyl)pyridine-2(1H)-one]	171 °C	2000 nM
CC(C)CCn1ccc(-c2ccc(CC(=O)N(C)C)cc2)c(C#N)c1=O [1-244]	122 °C	6310 nM
CC(C)CCn1ccc(-c2ccc(CC#N)cc2)c(C#N)c1=O [1-254]	122 °C	2510 nM
CC(C)CCn1ccc(-c2cccc(-c3ccccc3)c2)c(C#N)c1=O [1-094]	131 °C	501 nM
N#Cc1c(-c2cccs2)ccn(Cc2ccc(C(F)(F)F)nc2)c1=O [1-046]	185 °C	1260 nM
CC(=O)N(C)Cc1ccc(-c2ccn(CCC(C)C)c(=O)c2C#N)cc1 [1-177]	112 °C	3980 nM
CC(C)CCn1ccc(-c2cccs2)c(C#N)c1=O [1-082]	123 °C	2000 nM
CC(C)CCn1ccc(-c2ccc(OCc3ccccn3)cc2)c(C#N)c1=O [1-157]	162 °C	398 nM
CC(=O)NCCOc1ccc(-c2ccn(CCC(C)C)c(=O)c2C#N)cc1 [1-128]	107 °C	3160 nM
CC(C)CCn1ccc(-c2ccc(Oc3ccc(C#N)cc3)cc2)c(C#N)c1=O [1-152]	193 °C	100 nM
CC(C)CCn1ccc(OCc2cccc(OC(F)(F)F)c2)c(C#N)c1=O [1-279]	116 °C	398 nM
Cc1nc(COc2ccc(-c3ccn(CCC(C)C)c(=O)c3C#N)cc2)cs1 [1-169]	144 °C	501 nM
COc1ccccc1-c1ccn(CC2CCCCC2)c(=O)c1C#N [1-011]	60 °C	2000 nM
CC(C)Cn1ccc(-c2cccs2)c(C#N)c1=O [1-077]	108 °C	3980 nM
CC(C)Cn1ccc(-c2ccc(Oc3ccncc3)cc2)c(C#N)c1=O [1-078]	170 °C	3980 nM

Compound	melting point	EC50 (human mGluR2 receptor)
COc1ccc(-c2ccn(Cc3ccc(OC(F)(F)F)cc3)c(=O)c2C#N)cc1 [1-039]	169 °C	158 nM
CC(C)CCn1ccc(-c2ccc(N3CC(C)OC(C)C3)cc2)c(C#N)c1=O (stereo not drawn) [1-227]	162 °C	501 nM
CCC(C)Oc1ccc(-c2ccn(CCC(C)C)c(=O)c2C#N)cc1F (stereo not drawn) [1-115]	154 °C	100 nM
CC(C)CCn1ccc(-c2ccc(OCc3ccncc3)cc2)c(C#N)c1=O [1-159]	171 °C	501 nM
COc1cccc(Oc2ccc(-c3ccn(CCC(C)C)c(=O)c3C#N)cc2)c1 [1-143]	118 °C	79.4 nM
CCCCn1ccc(-c2ccc(OC(F)(F)F)cc2)c(C#N)c1=O [1-055]	123 °C	1260 nM
CC(C)CCn1ccc(-c2cccc(Cl)c2)c(C#N)c1=O [1-090]	123 °C	794 nM
COc1ccc(-c2ccn(CCC(C)C)c(=O)c2C#N)cc1F [1-114, 3-cyano-4-(3-fluoro-4-methoxyphenyl)-1-(3-methylbutyl)pyridine-2(1)-one]	133 °C	1000 nM
COc1ccc(-c2ccn(CCC(C)C)c(=O)c2C#N)c(F)c1 [1-113, 3-cyano-4-(2-fluoro-4-methoxyphenyl)-1-(3-methylbutyl)pyridine-2(1H)-one]	65 °C	631 nM
CCCCn1ccc(-c2ccc(OCc3cccc(C)n3)cc2)c(C#N)c1=O [1-063]	102 °C	1000 nM
CC(C)CCn1ccc(-c2ccc(Cl)cc2)c(C#N)c1=O [1-091]	137 °C	1580 nM
CC(C)CCn1ccc(-c2ccc(OCc3cccc(F)c3)cc2)c(C#N)c1=O [1-146]	139 °C	63.1 nM
CC(C)CCn1ccc(C#Cc2ccc(N(C)C)cc2)c(C#N)c1=O [1-270]	166 °C	100 nM
CC(C)CCn1ccc(-c2ccc(NCC#N)cc2)c(C#N)c1=O [1-186]	269 °C	794 nM
COc1ccc(-c2ccn(Cc3ccc(C(F)(F)F)cc3)c(=O)c2C#N)cc1 [1-024]	181 °C	126 nM
N#Cc1c(-c2ccc(N3CCOCC3)cc2)ccn(Cc2ccc(OC(F)(F)F)cc2)c1=O [1-032]	190 °C	794 nM
N#Cc1c(-c2cccs2)ccn(CC2CCCCC2)c1=O [1-008]	148 °C	251 nM
COCc1ccc(-c2ccn(CCC(C)C)c(=O)c2C#N)cc1 [1-103, 3-cyano-4-(4-methoxymethylphenyl)-1-(3-methylbutyl)pyridine-2(1H)-one]	91 °C	2000 nM
CNc1ccc(-c2ccn(CCC(C)C)c(=O)c2C#N)cc1 [1-171]	189 °C	501 nM
CC(C)CCn1ccc(-c2ccc(OC(F)(F)F)cc2)c(C#N)c1=O [1-120]	122 °C	501 nM
N#Cc1c(-c2ccc(OCCCN3CCOCC3)cc2)ccn(Cc2ccc(OC(F)(F)F)cc2)c1=O [1-038]	140 °C	794 nM
CC(C)CCn1ccc(-c2ccc(OCc3ccccc3)c(F)c2)c(C#N)c1=O [1-148]	173 °C	50.1 nM
CC(C)CCn1ccc(-c2ccc(OCc3cccc(C#N)c3)cc2)c(C#N)c1=O [1-151]	154 °C	39.8 nM
N#Cc1c(-c2ccc(CCCO)cc2)ccn(Cc2ccc(OC(F)(F)F)cc2)c1=O [1-040]	180 °C	200 nM

Now from value to compound:

melting point	EC50 (human mGluR2 receptor)	Compound
91 °C	126 nM	CC(C)CCn1ccc(N2CCC(N(C)Cc3ccc(C(F)(F)F)cc3)CC2)c(C#N)c1=O [4-029]
164.7 °C	6310 nM	CCCCn1ccc(-c2ccc3c(c2)nc(C)n3Cc2ccccn2)c(C#N)c1=O [5-002]
139 °C	39.8 nM	N#Cc1c(N2CCC(c3ccccc3)CC2)ccn(Cc2ccc(OC(F)(F)F)cc2)c1=O [4-062]
125 °C	794 nM	N#Cc1c(N2CCN(Cc3ccc(OC(F)(F)F)c(Cl)c3)CC2)ccn(CC2CC2)c1=O [2-039]
157 °C	501 nM	N#Cc1c(N2CCN(Cc3ccc(OCC4CC4)c(Cl)c3)CC2)ccn(CC2CC2)c1=O [2-040]
141 °C	63.1 nM	CC(C)CCn1ccc(N2CCC(N(C)c3cccc(C(F)(F)F)c3)CC2)c(C#N)c1=O [4-031]
256 °C	158 nM	CC(C)CCn1ccc(N2CCN(Cc3ccc(OC(F)(F)F)c(Cl)c3)CC2)c(C#N)c1=O [2-022]
253 °C	3160 nM	CC(C)CCn1ccc(N2CCC(N3CCc4ccccc4C3)CC2)c(C#N)c1=O [4-034]
159 °C	126 nM	CN(Cc1ccccc1)C1CCN(c2ccn(CCOc3ccccc3)c(=O)c2C#N)CC1 [4-064]
100 °C	3980 nM	CC(C)CCn1ccc(N2CCC(N(C)Cc3cccc(F)c3)C2)c(C#N)c1=O (stereo not drawn) [5-006]
127 °C	316 nM	CCCCn1ccc(N2CCN(Cc3ccc(OC(F)(F)F)c(Cl)c3)CC2)c(C#N)c1=O [2-002]
156 °C	1580 nM	N#Cc1c(N2CCN(Cc3ccc(F)cc3)CC2)ccn(Cc2ccc(OC(F)(F)F)cc2)c1=O [2-044]
112 °C	50.1 nM	CC(C)CCn1ccc(N2CCC(c3cccc(C(F)(F)F)c3)CC2)c(C#N)c1=O [4-016]
140 °C	5010 nM	N#Cc1c(N2CCN(Cc3cc(F)cc(C(F)(F)F)c3)CC2)ccn(CC2CC2)c1=O [2-038]
102 °C	251 nM	CC(C)CCn1ccc(N2CC(OCc3ccc(OC(F)(F)F)cc3)C2)c(C#N)c1=O [5-008]
130 °C	50.1 nM	CC(C)CCn1ccc(N2CCc3c(oc4ccccc34)C2)c(C#N)c1=O [5-041]
132 °C	3980 nM	CCCCn1ccc(N2CCC(c3ccnc(C)c3)CC2)c(C#N)c1=O [4-003]
100 °C	79.4 nM	CC(C)CCn1ccc(N2CCC(CCOc3ccc(F)cc3)CC2)c(C#N)c1=O [4-019]
